The values below come from patent US20210220333A1, “COMPOSITIONS AND METHODS FOR PREVENTING AND/OR TREATING FILARIAL DISEASE” (priority 2018, published 2021).

Data set [1] concerns adult B. malayi female worms. The data set can be described thus: Adult B. malayi worm incubation with UGT inhibitors, worm motility score (macrofilaricidal activity in vitro). Format: cell-based, Brugia malayi. To be noted: for Lowest effective concentration (lowest concentration with significant effect on motility): adult worms in vitro. On the procedure:
For the siRNA experiments, data was analyzed using one-way analysis of variance (ANOVA) or T-test by PRISM 7.0 (GraphPad Software, La Jolla, Calif., US). Following ANOVA, individual comparisons of mean values were performed using Tukey's multiple comparisons test. For the UGT inhibitor experiments, area under curve (AUC) analysis was performed followed by one-way ANOVA to determine significance. Statistical significance between the experimental and control groups was designated as follows: * for p values<0.05, ** for p values<0.01, and *** for p values<0.001.
(§1) Worm motility: Worms were visualized with a dissecting microscope by an observer blinded to treatment category. Motility of the adult female B. malayi worms was rated based on the following scale: 4=active movement, 3=modest reduction in movement, 2=severe reduction in movement, 1=twitching, and 0=no movement.
For probenecid, adult female worms were incubated in culture media with the drug for 7 days at concentrations of 5000 μM, 500 μM, 250 μM, and 100 μM. Worms were transferred into new media with corresponding drug concentrations every other day. As a negative control, worms were incubated in culture media alone. Worm motility was scored using the previously mentioned scale described in Example 3 for the course of the experiment.

Data set [2] in a line: UGT inhibitor LDH cytotoxicity assay. To be noted: human. Format: cell-based. The protocol: UGT Inhibitor Cytotoxicity Assay: Cytotoxicity of the UGT inhibitors was measured using a Pierce LDH Cytotoxicity Assay Kit (Thermo Fisher Scientific, Carlsbad, Calif., US). HEK cells were seeded at 5×10^4 per well in DMEM (Quality Biological, Gaithersburg, Md., US) with 10% Hyclone Cosmic Calf Serum (Thermo Fisher Scientific, Carlsbad, Calif., US), 200 μM of L-glutamine (Quality Biological, Gaithersburg, Md., US), and 50 μg/mL of gentamicin (Quality Biological, Gaithersburg, Md., US) at 37° C. in 5% CO2. The cells were then incubated with various concentrations of the UGT inhibitors overnight. Following this, 50 μL of media was transferred from each well to a new 96-well plate and then added 50 μL of reaction buffer. The mixture was incubated for 30 minutes and then added 50 μL of stop solution. Absorbance was measured at 490 nm and 680 nm. The following controls were included in the experiment: a spontaneous lactate dehydrogenase (LDH) activity control that was incubated with the vehicle only and a maximum LDH activity control that was incubated with nothing but later lysed prior to incubation with the reaction buffer. Absorbance was calculated for each well by subtracting the 680 nm absorbance value (background) from the 490 nm absorbance value. Percent cytotoxicity was calculated using the following equation (Formula 1): [formula]

The conditions of data set [3]: cited from earlier work.
Data set [4] has as its system B. malayi microfilariae. The data set can be described thus: B. malayi microfilariae incubation with UGT inhibitors (microfilaricidal activity in vitro). In kind it is cell-based, Brugia malayi. Particulars: 500 μM. The protocol: B. malayi microfilariae incubation with UGT inhibitors: The above UGT inhibitors were evaluated for microfilaricidal activity in vitro. For each drug, experiments were performed in triplicate at a concentration of 2×10^4 Mf/mL in culture media. Viability was determined by quantifying the number of motile larvae from 100 randomly selected microfilariae per well. […] As a negative control, larvae were incubated in culture media alone. The UGT inhibitor experiments were repeated two times under similar conditions.

The subject of data set [5] is adult B. malayi female worms. Nature of the data set: Adult female B. malayi incubation with UGT inhibitor in combination with albendazole, worm motility. To be noted: 8 days. Format: cell-based, Brugia malayi. On the procedure: as §1
For the probenecid samples, adult female worms were incubated in culture media with the drug for 8 days at concentration of 100 μM alone or in combination with 10 μM of albendazole. Worms were transferred into new media with corresponding drug concentrations every other day. As a negative control, worms were incubated in culture media alone. Worm motility was scored using a previously established scale as described in Example 3 for the course of the experiment.

Molecules are shown by their SMILES. Several values for one entry are separate records, joined by “and”; a condition that tells them apart may be missing. Identical values can stand only once. Like-named read-outs stand apart in the source and are kept apart here.

With `O=C1C(CC[S+]([O-])c2ccccc2)C(=O)N(c2ccccc2)N1c1ccccc1` (stereo not shown) [sulfinpyrazone], the “Lowest effective concentration (lowest concentration with significant effect on motility)” value in data set [1] is 200 µM. In data set [2] (HEK cells, 40 μM, overnight, LDH), the cytotoxicity at 40 µM was -4.03%. In addition, the cytotoxicity at 100 µM in data set [2] (HEK cells, 100 μM, overnight, LDH, read-out: % Cytotoxicity) was -4.46%. Further, the cytotoxicity at 200 µM in data set [2] (HEK cells, 200 μM, overnight, LDH) was -5.35%. In data set [2] (HEK cells, 2000 μM, overnight, LDH), the cytotoxicity at 2000 µM was -4.14%. In data set [3] (400 mg dose, read-out: Maximum concentration (Cmax) in humans), the Cmax is 79.9 µM.
As for `CCCN(CCC)S(=O)(=O)c1ccc(C(=O)O)cc1` [probenecid, p-(di-n-propylsulphamyl)-benzoic acid], the “Macrofilaricidal activity in vitro” value in data set [1] (500 μM) is given as “robust macrofilaricidal activity”. In data set [1] (5000 μM, 7 days, media control AUC 24.18), the “Adult worm motility, area under the curve (AUC)” value came to 8.1. Further, the “Macrofilaricidal activity in vitro” value in data set [1] (adult worms) is on record as “exhibited macrofilaricidal activity in vitro”. Moreover, the “Lowest effective concentration (lowest concentration with significant effect on motility)” value in data set [1] was 500 µM. In addition, the Microfilaricidal effect entry in data set [4] was “no clear microfilaricidal effect”. Further, in data set [2], the cytotoxicity at 100 µM was -2.69%, the cytotoxicity at 250 µM was -0.67%, the cytotoxicity at 500 µM was -1.34% and the cytotoxicity at 5000 µM was -2.49%. For the same compound, in data set [3] (single 2 g oral dose), the “Adverse events in humans” value is “minimal adverse events”; the “Peak concentration in humans” value is 148.6 μg/mL and 520.7 μM.
Turning to `CCCSc1ccc2nc(NC(=O)OC)[nH]c2c1` [albendazole], the “Adult worm motility, area under the curve (AUC)” value in data set [5] (10 μM albendazole alone) is 29.63. In addition, in data set [5] (10 μM alone), the “Macrofilaricidal activity compared to media alone” value is reported as “Limited macrofilaricidal activity”.
